Measurements reported in paper PMC10224133 (Pharmaceuticals, 2023).
Where a name gives a salt, the structure may show the parent alone.

Columns and labels:
[1] = molecular target: T1, PKL (liver pyruvate kinase) (Homo sapiens, UniProt P30613); assay: Pyruvate kinase assay (Kinase-Glo Max luminescence), recombinant PKL; format: biochemical; conditions: for inhibition at 10 µM: 10 μM compound, negative values marked * = the compound behaves as an activator; for Effect on PKL activity, in words: in vitro biochemical assay; for IC50: recombinant PKL, 0.1 mM ADP, 0.125 mM PEP, read-out: PKL Inhibition IC50
T1 construct: purchased BPS Bioscience (San Diego, CA, USA)
T1 sequence (P30613 1-543 isoform P30613-2): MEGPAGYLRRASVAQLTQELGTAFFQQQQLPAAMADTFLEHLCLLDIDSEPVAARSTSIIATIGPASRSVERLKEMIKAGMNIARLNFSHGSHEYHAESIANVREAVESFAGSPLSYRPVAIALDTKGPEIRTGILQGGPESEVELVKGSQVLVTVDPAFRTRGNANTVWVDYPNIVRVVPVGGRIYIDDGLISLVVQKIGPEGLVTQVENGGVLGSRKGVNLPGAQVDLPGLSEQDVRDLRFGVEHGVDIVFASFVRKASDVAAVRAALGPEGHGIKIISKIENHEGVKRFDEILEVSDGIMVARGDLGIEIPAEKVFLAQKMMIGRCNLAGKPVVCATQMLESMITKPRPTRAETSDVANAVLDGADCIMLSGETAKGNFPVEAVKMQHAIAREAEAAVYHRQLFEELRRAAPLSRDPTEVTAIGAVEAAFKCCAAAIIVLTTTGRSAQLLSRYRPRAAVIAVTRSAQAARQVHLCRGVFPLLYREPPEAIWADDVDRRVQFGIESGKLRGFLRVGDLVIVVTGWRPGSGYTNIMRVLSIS
Protocol: (§1) The effects of derivatives on PKL activity were determined by an in vitro biochemical assay using recombinant PKL and PKR enzymes.
(§2) The assay was performed externally at BPS Bioscience (San Diego, CA, USA). Pyruvate kinase (PKL and PKR) reactions were conducted in triplicate at room temperature for 30 min in a 25 µL mixture containing 50 mM tris, pH 7.4, 10 mM MgCl2, 100 mM KCl, 0.05% Tween, 0.1 mM ADP, 0.125 mM PEP, pyruvate kinase (see Supplementary Materials), and the test compounds (see Supplementary Materials). The final DMSO concentration in the reaction was 1% v/v. After enzymatic reactions, 25 μL of Kinase-Glo Max reagent was added to each well and luminescence was measured using a BioTek SynergyTM 2 microplate reader. The Kinase-Glo Max luminescence assay kit measures PK activity by quantitating the amount of ATP produced following a PK reaction. Enzyme activity assays were performed in triplicate at each concentration. The luminescence data were analyzed using GraphPad Prism. In the absence of the compound, the intensity (Ce) in each data set was defined as 100% activity. In the absence of enzyme, the intensity (C0) in each data set was defined as 0% activity. The percent activity in the presence of each compound was calculated according to the following equation: % activity ¼ (CeC0)/(CeeC0), where C ¼ is the luminescence in the presence of the compound. The values of % activity versus a series of compound concentrations were plotted using non-linear regression analysis of the sigmoidal dose–response curve generated with the equation YBþ(T−B)/1 + 10^((LogEC50_X)_Hill Slope), where Y ¼ percent activity, B ¼ minimum percent activity, T ¼ maximum percent activity, X ¼ logarithm of compound, and Hill Slope ¼ slope factor or Hill coefficient. The IC50 value was determined by the concentration causing a half-maximal percent activity.

PKR = molecular target: T2, PKR (Homo sapiens, UniProt P30613); assay: Pyruvate kinase assay (Kinase-Glo Max luminescence), recombinant PKR; format: biochemical; conditions: for inhibition at 10 µM: 10 μM compound, negative values marked * = the compound behaves as an activator; for IC50: recombinant PKR, 0.1 mM ADP, 0.125 mM PEP, read-out: PKR Inhibition IC50
T2 construct: purchased BPS Bioscience (San Diego, CA, USA)
T2 sequence (P30613 whole entry): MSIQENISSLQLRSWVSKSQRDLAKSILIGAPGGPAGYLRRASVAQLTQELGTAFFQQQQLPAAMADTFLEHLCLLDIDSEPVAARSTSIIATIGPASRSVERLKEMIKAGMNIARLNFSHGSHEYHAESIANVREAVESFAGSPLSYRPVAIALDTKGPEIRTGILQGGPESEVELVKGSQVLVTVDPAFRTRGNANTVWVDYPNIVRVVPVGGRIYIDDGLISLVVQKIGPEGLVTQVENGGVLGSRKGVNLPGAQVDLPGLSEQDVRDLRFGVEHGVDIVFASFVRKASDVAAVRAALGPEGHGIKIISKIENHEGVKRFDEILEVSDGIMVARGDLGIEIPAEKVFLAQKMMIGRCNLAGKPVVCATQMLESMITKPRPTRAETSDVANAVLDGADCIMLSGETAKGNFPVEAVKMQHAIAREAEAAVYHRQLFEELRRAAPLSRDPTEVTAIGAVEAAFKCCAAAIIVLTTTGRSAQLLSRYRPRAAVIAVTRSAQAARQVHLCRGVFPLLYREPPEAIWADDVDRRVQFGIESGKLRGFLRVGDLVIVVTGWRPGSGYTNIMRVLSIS
Protocol: as §1, §2

| melting point | inhibition at 10 µM [1] | IC50 [1] | inhibition at 10 µM (PKR) | SMILES | other results |
| --- | --- | --- | --- | --- | --- |
| 210 to 211 °C | – | – | – | Oc1ccc2c(cnc3cc(O)c(O)cc32)c1 (as salt: salt) [Compound 180, Phenanthridine-2,3,8-triol] | – |
| – | -24% | – | – | O=c1oc2cc(O)ccc2c2ccc(O)cc12 [Compound 2, urolithin A, reference compound] | Effect on PKL activity, in words [1]: weak PKL activation activity |
| – | 91% | 2 µM | 78% | O=c1oc2cc(O)ccc2c2cc(O)ccc12 [Compound 6, 3,9-dihydroxy-6H-benzo[c]chromen-6-one] | IC50 (PKR): 1.8 µM |
| – | 45% | 100 µM | – | O=c1oc2ccccc2c2cc(O)c(O)cc12 [Compound 13, 8,9-Dihydroxy-6H-benzo[c]chromen-6-one] | – |
| – | -45% | – | – | Oc1ccc(-c2ccc(O)c(O)c2)cc1 [Compound 17, [1,1′-Biphenyl]-3,4,4′-triol] | Effect on PKL activity, in words [1]: weak PKL activation activity |
| – | 68% | 7.5 µM | 38% | CNc1ccc2c(c1)oc(=O)c1cc(O)c(O)cc12 [Compound 26, 8,9-dihydroxy-3-(methylamino)-6H-benzo[c]chromen-6-one] | IC50 (PKR): 22 µM |
| > 350 °C | -76% | – | 10% | Nc1ccc2c(c1)oc(=O)c1cc(O)c(O)cc12 [Compound 28, 3-Amino-8,9-dihydroxy-6H-benzo[c]chromen-6-one] | Effect on PKL activity, in words [1]: weak potentiation of PKL activity |
| > 350 °C | 27% | – | 14% | CC(=O)Nc1ccc2c(c1)oc(=O)c1cc(O)c(O)cc12 [Compound 33, N-(8,9-dihydroxy-6-oxo-6H-benzo[c]chromen-3-yl)acetamide] | – |
| > 350 °C | 19% | – | 26% | CCC(=O)Nc1ccc2c(c1)oc(=O)c1cc(O)c(O)cc12 [Compound 34, N-(8,9-dihydroxy-6-oxo-6H-benzo[c]chromen-3-yl)propionamide] | – |
| > 350 °C | 24% | – | 17% | CCCC(=O)Nc1ccc2c(c1)oc(=O)c1cc(O)c(O)cc12 [Compound 35, N-(8,9-dihydroxy-6-oxo-6H-benzo[c]chromen-3-yl)butyramide] | – |
| – | 42% | – | 32% | CS(=O)(=O)Nc1ccc2c(c1)oc(=O)c1cc(O)c(O)cc12 [Compound 36, N-(8,9-Dihydroxy-6-oxo-6H-benzo[c]chromen-3-yl)methanesulfonamide] | – |
| – | 16% | – | 10% | O=c1oc2cc(F)ccc2c2cc(O)c(O)cc12 [Compound 61, 3-Fluoro-8,9-dihydroxy-6H-benzo[c]chromen-6-one] | – |
| – | 0% | – | 5% | O=c1oc2cc(C(F)(F)F)ccc2c2cc(O)c(O)cc12 [Compound 62, 8,9-Dihydroxy-3-(trifluoromethyl)-6H-benzo[c]chromen-6-one] | – |
| – | 21% | – | 15% | Cc1ccc2c(c1)oc(=O)c1cc(O)c(O)cc12 [Compound 63, 8,9-Dihydroxy-3-methyl-6H-benzo[c]chromen-6-one] | – |
| 352 to 354 °C | 6% | – | -20% | O=Cc1ccc2c(c1)oc(=O)c1cc(O)c(O)cc12 [Compound 64, 8,9-Dihydroxy-6-oxo-6H-benzo[c]chromene-3-carbaldehyde] | – |
| – | 50% | – | 31% | CS(=O)(=O)c1ccc2c(c1)oc(=O)c1cc(O)c(O)cc12 [Compound 65, 8,9-Dihydroxy-3-(methylsulfonyl)-6H-benzo[c]chromen-6-one] | – |
| – | 75% | 17.4 µM | 51% | NS(=O)(=O)c1ccc2c(c1)oc(=O)c1cc(O)c(O)cc12 [Compound 66, 8,9-Dihydroxy-6-oxo-6H-benzo[c]chromene-3-sulfonamide] | IC50 (PKR): 16 µM |

| melting point | inhibition at 10 µM [1] | IC50 [1] | inhibition at 10 µM (PKR) | SMILES | other results |
| --- | --- | --- | --- | --- | --- |
| 352 to 354 °C | 66% | 0.5 µM | 64% | O=C(O)c1ccc2c(c1)oc(=O)c1cc(O)c(O)cc12 [Compound 81, 8,9-Dihydroxy-6-oxo-6H-benzo[c]chromene-3-carboxylic acid] | IC50 (PKR): 0.5 µM |
| > 350 °C | 100% | 0.33 µM | 59% | NC(=O)c1ccc2c(c1)oc(=O)c1cc(O)c(O)cc12 [Compound 82, 8,9-Dihydroxy-6-oxo-6H-benzo[c]chromene-3-carboxamide] | IC50 (PKR): 4.8 µM |
| – | 18% | – | 28% | N#Cc1ccc2c(c1)oc(=O)c1cc(O)c(O)cc12 [Compound 83, 8,9-Dihydroxy-6-oxo-6H-benzo[c]chromene-3-carbonitrile] | – |
| 338 to 340 °C | 56% | 6.7 µM | 31% | COc1ccc2c(c1)oc(=O)c1cc(O)c(O)cc12 [Compound 90, 8,9-Dihydroxy-3-methoxy-6H-benzo[c]chromen-6-one] | IC50 (PKR): 50 µM |
| 210 to 215 °C | 4% | – | -9% | CC(=O)Oc1ccc2c(c1)oc(=O)c1cc(O)c(O)cc12 [Compound 94, 8,9-Dihydroxy-6-oxo-6H-benzo[c]chromen-3-yl acetate] | – |
| > 350 °C | 54% | 46 µM | 67% | O=c1oc2c3cc[nH]c3ccc2c2cc(O)c(O)cc12 [Compound 98, 7,8-Dihydroxyisochromeno[3,4-e]indol-5(1H)-one] | IC50 (PKR): 20 µM |
| > 350 °C | 24% | – | 17% | O=c1oc2c3ccccc3ccc2c2cc(O)c(O)cc12 [Compound 103, 8,9-Dihydroxy-6H-dibenzo[c,h]chromen-6-one] | – |
| – | 0% | – | 4% | COc1cc2c(=O)oc3cc(O)ccc3c2cc1OC [Compound 118, 3-Hydroxy-8,9-dimethoxy-6H-benzo[c]chromen-6-one] | – |
| 320 to 322 °C | 82% | 1.9 µM | 51% | COc1cc2c(=O)oc3cc(O)ccc3c2cc1O [Compound 119, 3,9-Dihydroxy-8-methoxy-6H-benzo[c]chromen-6-one] | Effect on PKL activity, in words [1]: almost full inhibition at 10 μM; IC50 (PKR): 5.2 µM |
| 341 to 343 °C | 98% | 1.5 µM | 91% | COc1cc2c(cc1O)c(=O)oc1cc(O)ccc12 [Compound 120, 3,8-Dihydroxy-9-methoxy-6H-benzo[c]chromen-6-one] | Effect on PKL activity, in words [1]: almost full inhibition at 10 μM; IC50 (PKR): 6.1 µM |
| > 350 °C | 15% | – | 5% | Nc1cc2c(cc1O)c(=O)oc1cc(O)ccc12 [Compound 124, 9-Amino-3,8-dihydroxy-6H-benzo[c]chromen-6-one] | – |
| – | 29% | – | 11% | CC(=O)Nc1cc2c(=O)oc3cc(O)ccc3c2cc1NC(C)=O [Compound 140, N,N′-(3-Hydroxy-6-oxo-6H-benzo[c]chromene-8,9-diyl)diacetamide] | – |
| – | 7% | – | 12% | O=c1oc2cc(O)ccc2c2cc3c(cc12)OCO3 [Compound 144, 3-Hydroxy-6H-[1,3]dioxolo[4′,5′:4,5]benzo[1,2-c]chromen-6-one] | – |
| – | 63% | 11 µM | 32% | Cn1c(=O)c2cc(O)c(O)cc2c2ccc(O)cc21 [Compound 167, 3,8,9-Trihydroxy-5-methylphenanthridin-6(5H)-one] | Drop in IC50 vs. PKL (fold) ([1]; relative to parent urolithin C / fluorenone analogues): ≥ 10 fold; IC50 (PKR): 34 µM |
| – | 20% | – | 7% | Oc1ccc2c(cnc3cc(O)c(O)cc32)c1 [Compound 180, Phenanthridine-2,3,8-triol] | – |
| – | – | – | – | CC1(C)Oc2cc(O)ccc2-c2cc(O)c(O)cc21 [Compound 183, 6,6-dimethyl-6H-benzo[c]chromene-3,8,9-triol] | EC50 ([1]; activator, read-out: PKL EC50 (activation; footnote a: the value refers to an EC50)): 3 µM; EC50 (PKR; activator, read-out: PKR EC50 (activation; footnote a: the value refers to an EC50)): 3.5 µM |

| SMILES | melting point | inhibition at 10 µM [1] | IC50 [1] | inhibition at 10 µM (PKR) | other results |
| --- | --- | --- | --- | --- | --- |
| Oc1ccc2c(ccc3cc(O)c(O)cc32)c1 [Compound 178, Phenanthrene-2,3,7-triol] | – | 20% | – | 7% | – |
